For 17 compounds, IC50 results are on record in patent US12577226B2, “Compounds for treating Huntington's disease” (PTC THERAPEUTICS, INC., priority 2019, dated 2026).

Bounds are passed on as bounds.

The test system of the assay is Endogenous Huntingtin Protein (capture with MW1 (expanded polyglutamine) or MAB2166 antibody). Description: Endogenous Huntingtin Protein Assay (ELISA-based Meso Scale Discovery electrochemiluminescence assay). Type of assay: cell-based. Conditions: MSD electrochemiluminescence platform. The gist of the method: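 MSD electrochemiluminescence sandwich immunoassay: plates coated with 1 μg/mL MW1 or MAB2166 capture antibody, samples incubated overnight at 4 °C. Detection with rabbit monoclonal #5656S then SULFO-TAG anti-rabbit (each 0.25 μg/mL, 1 h RT).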
(In an ELISA, binding on a coated surface is turned into a signal by an enzyme label.)

In general, IC50 refers to the concentration needed to halve the response being measured. Low readings indicate greater potency, high ones weaker potency. `C[C@@H]1CN(c2ccc(-c3ncc(-c4ccc5ncnn5c4)cc3O)nn2)C[C@H](C)N1` [Compound 94, 2-{6-[(3R,5S)-3,5-dimethylpiperazin-1-yl]pyridazin-3-yl}-5-([1,2,4]triazolo[1,5-a]pyridin-6-yl)pyridin-3-ol and 2-{6-[(3S,5R)-3,5-dimethylpiperazin-1-yl]pyridazin-3-yl}-5-([1,2,4]triazolo[1,5-a]pyridin-6-yl)pyridin-3-ol] registered an IC50 of 500 to 1000 nM.
The compound “2-(6-{[(3R,4S)-3-fluoro-2,2,6,6-tetramethylpiperidin-4-yl]oxy}pyridazin-3-yl)-5-(2-methylimidazo[1,2-b]pyridazin-6-yl)pyridin-3-ol and 2-(6-{[(3S,4R)-3-fluoro-2,2,6,6-tetramethylpiperidin-4-yl]oxy}pyridazin-3-yl)-5-(2-methylimidazo[1,2-b]pyridazin-6-yl)pyridin-3-ol [Compound 48]” had an IC50 of no more than 100 nM.
In turn, `[2H]C([2H])([2H])n1cc(-c2cnc(-c3ccc(N(C)C4CC(C)(C)NC5(CC5)C4)nn3)c(O)c2)cn1` (centres unmarked) [Compound 53, 2-{6-[(5,5-dimethyl-4-azaspiro[2.5]octan-7-yl)(methyl)amino]pyridazin-3-yl}-5-[1-(^2H3)methyl-1H-pyrazol-4-yl]pyridin-3-ol] showed an IC50 of no more than 100 nM.
For the compound “5-[(6-methylpyridin-3-yl)amino]-2-{6-[(3R)-3-(propan-2-yl)piperazin-1-yl]pyridazin-3-yl}pyridin-3-ol and 5-[(6-methylpyridin-3-yl)amino]-2-{6-[(3S)-3-(propan-2-yl)piperazin-1-yl]pyridazin-3-yl}pyridin-3-ol [Compound 127]”, the IC50 is no more than 100 nM.
With `CN(c1ccc(-c2ncc(-c3ncco3)cc2O)nn1)C1CC(C)(C)NC(C)(C)C1` [Compound 14, 2-{6-[methyl(2,2,6,6-tetramethylpiperidin-4-yl)amino]pyridazin-3-yl}-5-(1,3-oxazol-2-yl)pyridin-3-ol], the IC50 is no more than 100 nM.
The compound `[2H]C([2H])([2H])n1cc(-c2cnc(-c3ccc(OC4CC(C)(C)NC5(CC5)C4)nn3)c(O)c2)cn1` (centres unmarked) [Compound 75, 2-{6-[(5,5-dimethyl-4-azaspiro[2.5]octan-7-yl)oxy]pyridazin-3-yl}-5-[1-(^2H3)methyl-1H-pyrazol-4-yl]pyridin-3-ol] registered an IC50 of no more than 100 nM.
Compound `C[C@H]1CN(c2ccc(-c3ncc(-c4cc(F)c5nn(C)cc5c4)cc3O)nn2)CCN1` [Compound 103, 5-(7-fluoro-2-methyl-2H-indazol-5-yl)-2-{6-[(3S)-3-methylpiperazin-1-yl]pyridazin-3-yl}pyridin-3-ol] registered an IC50 of no more than 100 nM.
The compound “5-(2,8-dimethylimidazo[1,2-a]pyridin-6-yl)-2-(6-{[(3R,4S)-3-fluoro-2,2,6,6-tetramethylpiperidin-4-yl]oxy}pyridazin-3-yl)pyridin-3-ol and 5-(2,8-dimethylimidazo[1,2-a]pyridin-6-yl)-2-(6-{[(3S,4R)-3-fluoro-2,2,6,6-tetramethylpiperidin-4-yl]oxy}pyridazin-3-yl)pyridin-3-ol [Compound 44]” came in with an IC50 of no more than 100 nM.
The compound `[2H]C([2H])([2H])n1cc(-c2cnc(-c3cnc(N4CCC(NC(C)(C)C)C4)nn3)c(O)c2)cn1` (centres unmarked) [Compound 137, 2-{3-[3-(tert-butylamino)pyrrolidin-1-yl]-1,2,4-triazin-6-yl}-5-[1-(^2H3)methyl-1H-pyrazol-4-yl]pyridin-3-ol] gave an IC50 of no more than 100 nM.
As for `C[C@@H]1CN(c2ccc(-c3ncc(-c4ccc5nn(C)cc5c4)cc3O)nn2)C[C@H](C)N1` [Compound 124, 2-{6-[(3R,5S)-3,5-dimethylpiperazin-1-yl]pyridazin-3-yl}-5-(2-methyl-2H-indazol-5-yl)pyridin-3-ol and 2-{6-[(3S,5R)-3,5-dimethylpiperazin-1-yl]pyridazin-3-yl}-5-(2-methyl-2H-indazol-5-yl)pyridin-3-ol], the IC50 was no more than 100 nM.
In the case of `Cc1cn2nc(-c3cnc(-c4ccc(O[C@@H]5CC(C)(C)NC(C)(C)[C@@H]5F)nn4)c(O)c3)cc(C#N)c2n1.Cc1cn2nc(-c3cnc(-c4ccc(O[C@H]5CC(C)(C)NC(C)(C)[C@H]5F)nn4)c(O)c3)cc(C#N)c2n1` (mixture of isomers) [Compound 68, 6-[6-(6-{[(3R,4S)-3-fluoro-2,2,6,6-tetramethylpiperidin-4-yl]oxy}pyridazin-3-yl)-5-hydroxypyridin-3-yl]-2-methylimidazo[1,2-b]pyridazine-8-carbonitrile and 6-[6-(6-{[(3S,4R)-3-fluoro-2,2,6,6-tetramethylpiperidin-4-yl]oxy}pyridazin-3-yl)-5-hydroxypyridin-3-yl]-2-methylimidazo[1,2-b]pyridazine-8-carbonitrile], the IC50 is no more than 100 nM.
Compound `C[C@]12CC[C@](C)(C[C@@H](Oc3ccc(-c4ncc(-n5nccn5)cc4O)nn3)C1)N2` [Compound 32, 2-(6-{[(1R,3s,5S)-1,5-dimethyl-8-azabicyclo[3.2.1]octan-3-yl]oxy}pyridazin-3-yl)-5-(2H-1,2,3-triazol-2-yl)pyridin-3-ol and 2-(6-{[(1S,3r,5R)-1,5-dimethyl-8-azabicyclo[3.2.1]octan-3-yl]oxy}pyridazin-3-yl)-5-(2H-1,2,3-triazol-2-yl)pyridin-3-ol] gave an IC50 of no more than 100 nM.
The figure for `C[C@@H]1CN(c2ccc(-c3ncc(-c4ccc5c(cnn5C)c4)cc3O)nn2)C[C@H](C)N1` [Compound 126, 2-{6-[(3R,5S)-3,5-dimethylpiperazin-1-yl]pyridazin-3-yl}-5-(1-methyl-1H-indazol-5-yl)pyridin-3-ol and 2-{6-[(3S,5R)-3,5-dimethylpiperazin-1-yl]pyridazin-3-yl}-5-(1-methyl-1H-indazol-5-yl)pyridin-3-ol] is 100 to 500 nM.
Compound `C[C@@H]1CN(c2ccc(-c3ncc(-c4ccc5n[nH]cc5c4)cc3O)nn2)C[C@H](C)N1` [Compound 131, 2-{6-[(3R,5S)-3,5-dimethylpiperazin-1-yl]pyridazin-3-yl}-5-(2H-indazol-5-yl)pyridin-3-ol and 2-{6-[(3S,5R)-3,5-dimethylpiperazin-1-yl]pyridazin-3-yl}-5-(2H-indazol-5-yl)pyridin-3-ol] registered an IC50 of 500 to 1000 nM.
`Cn1cc2cc(-c3cnc(-c4ccc(O[C@H]5CC(C)(C)NC(C)(C)[C@H]5F)nn4)c(O)c3)cc(C#N)c2n1` (single isomer, unassigned) [Compound 34, 5-[6-(6-{[(3R,4S)-3-fluoro-2,2,6,6-tetramethylpiperidin-4-yl]oxy}pyridazin-3-yl)-5-hydroxypyridin-3-yl]-2-methyl-2H-indazole-7-carbonitrile or 5-[6-(6-{[(3S,4R)-3-fluoro-2,2,6,6-tetramethylpiperidin-4-yl]oxy}pyridazin-3-yl)-5-hydroxypyridin-3-yl]-2-methyl-2H-indazole-7-carbonitrile] returned an IC50 of no more than 100 nM.
For the compound `CC1(C)CC(Oc2ccc(-c3ncc(-c4cn[nH]c4)cc3O)nn2)CC2(CC2)N1` (centres unmarked) [Compound 27, 2-{6-[(5,5-dimethyl-4-azaspiro[2.5]octan-7-yl)oxy]pyridazin-3-yl}-5-(1H-pyrazol-4-yl)pyridin-3-ol], the IC50 is no more than 100 nM.
Take `Cn1cc2cc(-c3cnc(-c4ccc(OC5CC(C)(C)NC(C)(C)C5)nn4)c(O)c3)cc(C#N)c2n1` [Compound 62, 5-[6-(6-{[2,2,6,6-tetramethylpiperidin-4-yl]oxy}pyridazin-3-yl)-5-hydroxypyridin-3-yl]-2-methyl-2H-indazole-7-carbonitrile]: the IC50 is no more than 100 nM.
